Measurements published in patent US6525062B2, “Method of treating pain using nalbuphine and opioid antagonists” (The Regents of the University of California, priority 2000, dated 2003).
Entries after “also recorded” stand apart in the source; their conditions may differ.

Key:
[1] = system: postoperative pain after removal of impacted third molars; conditions: co-administration of 0.4 mg naloxone, human patients, cited from earlier work
[2] = system: postoperative pain after removal of third molar teeth
Source text: This is a subjective measurement of pain, in which persons participating in the study are requested to indicate a level of pain at a certain time on a 10-cm line. The patient makes an indication on the line at a value from 0 to 10 indicating the level of pain felt at that time (where 0 indicates no pain and 10 indicates the worst pain imaginable to the patient). […] Tabulations were then made indicating increase or decrease in the pain level with time, with a negative value indicating a decrease in pain experienced by the patient and a positive value, an increase in such pain.
In this clinical trial, 88 patients underwent standardized surgery by the same oral surgeon for removal of third molar (“wisdom”) teeth, including at least one bony impacted mandibular third molar. Prior to surgery, patients received intravenous diazepam, nitrous oxide, and a local anesthetic (mepivacaine without vasoconstrictor to obtain a nerve block of short duration). […]
Baseline pain intensity was defined as the last VAS pain rating before administration of the test drug or drugs. VAS pain ratings were recorded at 20-minute intervals beginning ten minutes after administration of the test drug. The duration of the experiment, measured from the time of administration of the test drug, was three hours. […]

[3] = system: postoperative pain after removal of third molar teeth; conditions: nalbuphine alone, data as reported in previous study; cited from earlier work
[4] = system: postoperative pain after removal of impacted wisdom teeth; conditions: cited from earlier work

Compound: CN1CC[C@]23c4c5ccc(O)c4O[C@H]2[C@@H](O)C=C[C@H]3[C@H]1C5 [morphine]
- effect of co-administered naloxone on analgesia produced by morphine ([1]; 8 mg morphine): attenuated

Compound: Oc1ccc2c3c1O[C@H]1[C@@H](O)CC[C@@]4(O)[C@@H](C2)N(CC2CCC2)CC[C@]314 [nalbuphine]
- pain relief (VAS), initial period ([2]; women, nalbuphine 2.5 mg alone vs naloxone 0.4 mg vs combination, nalbuphine-alone data from previous study): slightly better pain relief in women than either naloxone at 0.4 mg or the combination
- gender x treatment interaction (ANOVA) [3]: significant gender x treatment interaction
- effect on postoperative pain ([4]; nalbuphine 5 mg alone, men): unexpectedly increased postoperative pain; also recorded: produced a marked increase in pain in men; also recorded: pain-enhancing effect; also recorded: had produced an increase in pain
- pain modulation effect versus placebo ([4]; nalbuphine 5 mg alone, women): did not produce pain modulation effects in women that were any better than those achieved by administration of a dose of placebo
- sex difference of analgesic effects ([4]; women versus men): greater and more consistent in women than in men

Compound: C=CCN1CC[C@]23c4c5ccc(O)c4O[C@H]2C(=O)CC[C@@]3(O)[C@H]1C5 [naloxone]
- gender differences in response (ANOVA) ([2]; Example 1, naloxone 0.4 mg alone or nalbuphine 5 mg + naloxone 0.4 mg, intravenous): lack of gender differences in response

Compound: CC(C)=CCN1CCC2(C)c3cc(O)ccc3CC1C2C (centres unmarked) [pentazocine]
- effect of co-administered naloxone on analgesia produced by pentazocine ([1]; 60 mg pentazocine): potentiated
